The values that follow come from publication PMC4142139 (European Journal of Drug Metabolism and Pharmacokinetics, 2014).

The target in one data set is T1, OATP1B1*1a (Homo sapiens, UniProt Q9Y6L6).
T1 sequence (Q9Y6L6 1-691): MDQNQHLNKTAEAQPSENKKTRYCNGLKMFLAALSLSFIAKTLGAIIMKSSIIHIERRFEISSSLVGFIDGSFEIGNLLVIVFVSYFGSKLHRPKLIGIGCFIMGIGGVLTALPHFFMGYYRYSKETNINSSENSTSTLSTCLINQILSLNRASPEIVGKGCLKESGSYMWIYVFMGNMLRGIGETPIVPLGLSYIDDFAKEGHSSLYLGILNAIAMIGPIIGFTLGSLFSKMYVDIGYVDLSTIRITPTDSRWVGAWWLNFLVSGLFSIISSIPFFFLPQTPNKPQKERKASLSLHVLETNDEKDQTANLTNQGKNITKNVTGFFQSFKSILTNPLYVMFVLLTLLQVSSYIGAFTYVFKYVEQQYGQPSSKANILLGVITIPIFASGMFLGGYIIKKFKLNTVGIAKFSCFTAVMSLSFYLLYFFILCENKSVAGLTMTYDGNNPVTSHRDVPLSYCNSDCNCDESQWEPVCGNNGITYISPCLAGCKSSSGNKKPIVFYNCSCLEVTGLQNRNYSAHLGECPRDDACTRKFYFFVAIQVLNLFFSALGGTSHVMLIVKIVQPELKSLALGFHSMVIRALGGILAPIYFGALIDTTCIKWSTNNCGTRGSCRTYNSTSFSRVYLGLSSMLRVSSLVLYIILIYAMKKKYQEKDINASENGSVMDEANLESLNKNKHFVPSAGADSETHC
Put plainly: inhibition of rosuvastatin uptake in OATP1B1*1a-HEK293T cells, LC/MS. The data set is classed as cell-based.

A further data set has as its target T2, OATP1B1*5 (Homo sapiens, UniProt Q9Y6L6, V174A).
T2 sequence (Q9Y6L6 1-691 V174A): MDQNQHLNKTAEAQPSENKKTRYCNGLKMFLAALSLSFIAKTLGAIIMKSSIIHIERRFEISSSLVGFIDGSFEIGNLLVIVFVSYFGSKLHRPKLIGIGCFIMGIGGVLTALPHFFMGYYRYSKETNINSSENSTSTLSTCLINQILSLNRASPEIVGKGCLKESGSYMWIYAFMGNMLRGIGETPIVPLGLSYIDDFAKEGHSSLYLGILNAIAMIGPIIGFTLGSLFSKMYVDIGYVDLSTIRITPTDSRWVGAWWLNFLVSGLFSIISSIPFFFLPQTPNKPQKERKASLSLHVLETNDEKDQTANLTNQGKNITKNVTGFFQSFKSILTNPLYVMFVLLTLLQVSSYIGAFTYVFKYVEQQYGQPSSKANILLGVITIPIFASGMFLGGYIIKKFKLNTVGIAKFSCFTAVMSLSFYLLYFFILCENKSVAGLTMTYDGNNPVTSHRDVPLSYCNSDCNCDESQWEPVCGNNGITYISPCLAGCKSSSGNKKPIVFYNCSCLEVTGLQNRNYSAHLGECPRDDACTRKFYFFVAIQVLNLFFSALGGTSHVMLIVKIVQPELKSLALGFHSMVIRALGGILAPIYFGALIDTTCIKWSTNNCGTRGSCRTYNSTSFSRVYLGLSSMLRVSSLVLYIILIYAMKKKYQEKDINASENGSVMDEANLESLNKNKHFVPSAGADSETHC
Nature of the data set: inhibition of rosuvastatin uptake in OATP1B1*5-HEK293T cells, LC/MS. The class given is cell-based.

Substrate in data set [1]: CC(C)c1nc(N(C)S(C)(=O)=O)nc(-c2ccc(F)cc2)c1/C=C/[C@@H](O)C[C@@H](O)CC(=O)O
Put plainly: concentration-dependent uptake kinetics. The data set is classed as cell-based, Homo sapiens.

As for `C[C@H]1[C@H](C)CC[C@]2(C(=O)O)CC[C@]3(C)C(=CC[C@@H]4[C@@]5(C)CC[C@H](O)C(C)(C)[C@@H]5CC[C@]43C)[C@H]12` [UA, 3b-hydroxy-urs-12-en-28-oic-acid], the IC50 against OATP1B1*1a is 6.25 ± 0.42 µM; on OATP1B1*5 it was 6.07 ± 0.57 µM.

B1: OATP1B1*1a (Homo sapiens) (protein)
chain: MDQNQHLNKTAEAQPSENKKTRYCNGLKMFLAALSLSFIAKTLGAIIMKSSIIHIERRFEISSSLVGFIDGSFEIGNLLVIVFVSYFGSKLHRPKLIGIGCFIMGIGGVLTALPHFFMGYYRYSKETNINSSENSTSTLSTCLINQILSLNRASPEIVGKGCLKESGSYMWIYVFMGNMLRGIGETPIVPLGLSYIDDFAKEGHSSLYLGILNAIAMIGPIIGFTLGSLFSKMYVDIGYVDLSTIRITPTDSRWVGAWWLNFLVSGLFSIISSIPFFFLPQTPNKPQKERKASLSLHVLETNDEKDQTANLTNQGKNITKNVTGFFQSFKSILTNPLYVMFVLLTLLQVSSYIGAFTYVFKYVEQQYGQPSSKANILLGVITIPIFASGMFLGGYIIKKFKLNTVGIAKFSCFTAVMSLSFYLLYFFILCENKSVAGLTMTYDGNNPVTSHRDVPLSYCNSDCNCDESQWEPVCGNNGITYISPCLAGCKSSSGNKKPIVFYNCSCLEVTGLQNRNYSAHLGECPRDDACTRKFYFFVAIQVLNLFFSALGGTSHVMLIVKIVQPELKSLALGFHSMVIRALGGILAPIYFGALIDTTCIKWSTNNCGTRGSCRTYNSTSFSRVYLGLSSMLRVSSLVLYIILIYAMKKKYQEKDINASENGSVMDEANLESLNKNKHFVPSAGADSETHC
As to B1, the Km in data set [1] is recorded as 19.87 ± 5.96 µM.

B2: OATP1B1*5 (Homo sapiens; V174A) (protein)
chain: MDQNQHLNKTAEAQPSENKKTRYCNGLKMFLAALSLSFIAKTLGAIIMKSSIIHIERRFEISSSLVGFIDGSFEIGNLLVIVFVSYFGSKLHRPKLIGIGCFIMGIGGVLTALPHFFMGYYRYSKETNINSSENSTSTLSTCLINQILSLNRASPEIVGKGCLKESGSYMWIYAFMGNMLRGIGETPIVPLGLSYIDDFAKEGHSSLYLGILNAIAMIGPIIGFTLGSLFSKMYVDIGYVDLSTIRITPTDSRWVGAWWLNFLVSGLFSIISSIPFFFLPQTPNKPQKERKASLSLHVLETNDEKDQTANLTNQGKNITKNVTGFFQSFKSILTNPLYVMFVLLTLLQVSSYIGAFTYVFKYVEQQYGQPSSKANILLGVITIPIFASGMFLGGYIIKKFKLNTVGIAKFSCFTAVMSLSFYLLYFFILCENKSVAGLTMTYDGNNPVTSHRDVPLSYCNSDCNCDESQWEPVCGNNGITYISPCLAGCKSSSGNKKPIVFYNCSCLEVTGLQNRNYSAHLGECPRDDACTRKFYFFVAIQVLNLFFSALGGTSHVMLIVKIVQPELKSLALGFHSMVIRALGGILAPIYFGALIDTTCIKWSTNNCGTRGSCRTYNSTSFSRVYLGLSSMLRVSSLVLYIILIYAMKKKYQEKDINASENGSVMDEANLESLNKNKHFVPSAGADSETHC
Turning to B2, the Km in data set [1] is on record as 10.05 ± 4.02 µM.
